Results from ChEMBL document CHEMBL3045042, “The discovery of SYP-10913 and SYP-11277: novel strobilurin acaricides” (Pest Manag Sci, 2011).
≈ marks a conversion by molar mass, not a printed value.

Columns and labels:
Tetranychus cinnabarinus [1] = experiment: Acaricidal activity against Tetranychus cinnabarinus (carmine spider mite) in kidney bean leaf assessed as mortality at 10 mg/L measured after 72 hr of spray; assay type: functional
Tetranychus cinnabarinus [2] = experiment: Acaricidal activity against Tetranychus cinnabarinus (carmine spider mite) in kidney bean leaf assessed as mortality at 40 mg/L measured after 72 hr of spray; assay type: functional
Tetranychus cinnabarinus [3] = experiment: Acaricidal activity against Tetranychus cinnabarinus (carmine spider mite) in kidney bean leaf assessed as mortality at 2.5 mg/L measured after 72 hr of spray; assay type: functional
[4] = Acute percutaneous toxicity in Mus musculus (mouse); assay type: organism-based; settings: in vivo, topical or ocular
Oryctolagus cuniculus [5] = species: Oryctolagus cuniculus; experiment: Toxicity in Oryctolagus cuniculus (rabbit) assessed as eye irritation; assay type: organism-based; settings: in vivo
Salmonella typhimurium = experiment: Genotoxicity in Salmonella enterica subsp. enterica serovar Typhimurium by Ames test; assay type: toxicity, organism-based
[6] = Acute oral toxicity in Mus musculus (mouse); assay type: organism-based; settings: in vivo
Tetranychus cinnabarinus [7] = experiment: Acaricidal activity against nymphs of Tetranychus cinnabarinus (carmine spider mite) in kidney bean leaf assessed as mortality measured after 120 hr; assay type: functional
Tetranychus cinnabarinus [8] = experiment: Acaricidal activity against Tetranychus cinnabarinus (carmine spider mite) in kidney bean leaf assessed as mortality at 1.25 mg/L measured after 72 hr of spray; assay type: functional
Oryctolagus cuniculus [9] = species: Oryctolagus cuniculus; experiment: Toxicity in Oryctolagus cuniculus (rabbit) assessed as skin irritation; assay type: organism-based; settings: in vivo
Tetranychus cinnabarinus [10] = experiment: Acaricidal activity against eggs of Tetranychus cinnabarinus (carmine spider mite) in kidney bean leaf assessed as unhatched eggs measured after 120 hr; assay type: functional
Tetranychus cinnabarinus [11] = experiment: Acaricidal activity against Tetranychus cinnabarinus (carmine spider mite) in kidney bean leaf assessed as mortality at 5 mg/L measured after 72 hr of spray; assay type: functional

Row | Structure (SMILES) | mortality at 10 µg/mL (Tetranychus cinnabarinus [1]) | mortality at 40 µg/mL (Tetranychus cinnabarinus [2]) | also measured
1 | CO/C=C(/C(=O)OC)c1ccccc1COc1cc(C(F)(F)F)nc(Nc2ccc(C(F)(F)F)cc2)n1 | 0% | 0% | –
2 | CO/C=C(/C(=O)OC)c1ccccc1COc1cc(C(F)(F)F)nc(Nc2ccc(OC)cc2)n1 | 0% | 0% | –
3 | CO/C=C(/C(=O)OC)c1ccccc1COc1cc(C(F)(F)F)nc(Nc2ccc(C)cc2)n1 | 0% | 0% | –
4 | CO/C=C(/C(=O)OC)c1ccccc1COc1cc(C(F)(F)F)nc(Nc2cccc(C)c2)n1 | 20% | 90% | –
5 | CO/C=C(/C(=O)OC)c1ccccc1COc1cc(C(F)(F)F)nc(Nc2ccccc2C)n1 | 0% | 100% | –
6 | CO/C=C(/C(=O)OC)c1ccccc1COc1cc(C(F)(F)F)nc(Nc2ccc(C)cc2C)n1 | 76% | 100% | –
7 | CO/C=C(/C(=O)OC)c1ccccc1COc1cc(C(F)(F)F)nc(Nc2cc(C)ccc2C)n1 | 0% | 0% | –
8 | CO/C=C(/C(=O)OC)c1ccccc1COc1cc(C(F)(F)F)nc(Nc2ccc(C)c(C)c2)n1 | 20% | 97% | –
9 | CO/C=C(/C(=O)OC)c1ccccc1COc1cc(C(F)(F)F)nc(Nc2cccc(Cl)c2Cl)n1 | 100% | 100% | mortality at 2.5 µg/mL (Tetranychus cinnabarinus [3]): 95%; LD50 [4]: ≥ 2150 mg/kg; Activity (Oryctolagus cuniculus [5]): Toxic; Activity (Salmonella typhimurium): Non-toxic; LD50 [6]: ≥ 4640 mg/kg; LC50 (Tetranychus cinnabarinus [7]): 0.34 µg/mL (≈ 0.644 µM); mortality at 1.25 µg/mL (Tetranychus cinnabarinus [8]): 75%; Activity (Oryctolagus cuniculus [9]): Non-toxic; LC50 (Tetranychus cinnabarinus [10]): 4.75 µg/mL (≈ 8.99 µM); mortality at 5 µg/mL (Tetranychus cinnabarinus [11]): 99%
10 | CO/C=C(/C(=O)OC)c1ccccc1COc1cc(C(F)(F)F)nc(Nc2cc(Cl)ccc2Cl)n1 | 20% | 100% | –
11 | CO/C=C(/C(=O)OC)c1ccccc1COc1cc(C(F)(F)F)nc(Nc2c(Cl)cccc2Cl)n1 | 0% | 0% | –
12 | CO/C=C(/C(=O)OC)c1ccccc1COc1cc(C(F)(F)F)nc(Nc2ccc(Cl)c(Cl)c2)n1 | 0% | 73% | –
13 | CO/C=C(/C(=O)OC)c1ccccc1COc1cc(C(F)(F)F)nc(Nc2cc(Cl)cc(Cl)c2)n1 | 0% | 0% | –
14 | CO/C=C(/C(=O)OC)c1ccccc1COc1cc(C(F)(F)F)nc(Nc2ccc(Cl)c(Cl)c2Cl)n1 | 100% | 100% | mortality at 2.5 µg/mL (Tetranychus cinnabarinus [3]): 98%; mortality at 1.25 µg/mL (Tetranychus cinnabarinus [8]): 75%; mortality at 5 µg/mL (Tetranychus cinnabarinus [11]): 100%
15 | CO/C=C(/C(=O)OC)c1ccccc1COc1cc(C(F)(F)F)nc(Nc2cc(Cl)c(Cl)cc2Cl)n1 | 0% | 0% | –
16 | CO/C=C(/C(=O)OC)c1ccccc1COc1cc(C(F)(F)F)nc(Nc2ccc(Cl)c(C)c2Cl)n1 | 100% | 100% | mortality at 2.5 µg/mL (Tetranychus cinnabarinus [3]): 92%; mortality at 1.25 µg/mL (Tetranychus cinnabarinus [8]): 79%; mortality at 5 µg/mL (Tetranychus cinnabarinus [11]): 100%
17 | CO/C=C(/C(=O)OC)c1ccccc1COc1cc(C(F)(F)F)nc(Nc2cccc(Cl)c2C)n1 | 0% | 0% | –
18 | CO/C=C(/C(=O)OC)c1ccccc1COc1cc(C(F)(F)F)nc(Nc2ccc(Cl)cc2C)n1 | 0% | 0% | –
19 | CO/C=C(/C(=O)OC)c1ccccc1COc1cc(C(F)(F)F)nc(Nc2ccc(Cl)cc2)n1 | 0% | 0% | –
20 | CO/C=C(/C(=O)OC)c1ccccc1COc1cc(C(F)(F)F)nc(OC(C)C)n1 [FLUACRYPYRIM] | 95% | 100% | mortality at 2.5 µg/mL (Tetranychus cinnabarinus [3]): 65%; LC50 (Tetranychus cinnabarinus [7]): 0.64 µg/mL (≈ 1.5 µM); mortality at 1.25 µg/mL (Tetranychus cinnabarinus [8]): 30%; LC50 (Tetranychus cinnabarinus [10]): 5.95 µg/mL (≈ 14 µM); mortality at 5 µg/mL (Tetranychus cinnabarinus [11]): 94%
21 | CO/C=C(/C(=O)OC)c1ccccc1COc1cc(C(F)(F)F)nc(Nc2ccc(Cl)cc2Cl)n1 [SYP-11277] | 100% | 100% | mortality at 2.5 µg/mL (Tetranychus cinnabarinus [3]): 98%; LC50 (Tetranychus cinnabarinus [7]): 0.37 µg/mL (≈ 0.7 µM); mortality at 1.25 µg/mL (Tetranychus cinnabarinus [8]): 90%; LC50 (Tetranychus cinnabarinus [10]): 3.63 µg/mL (≈ 6.87 µM); mortality at 5 µg/mL (Tetranychus cinnabarinus [11]): 100%
